Reference: paper PMC3111189, “Bioactive Indole Derivatives from the South Pacific Marine Sponges Rhopaloeides odorabile and Hyrtios sp” (Marine Drugs, 2011)
“And” between values parts separate entries of the source, which are not always exact repeats. Identical values can stand only once. Like-named read-outs stand apart in the source and are kept apart here.

What was measured:
bee venom PLA2 = bee venom PLA2 (Apis mellifera, UniProt P00630); assay: biochemical
KB cells = assay: Cytotoxicity assay (MTS) on KB cells
Protocol: The human KB cell line was obtained from ECACC (Salisbury, UK) and grown in D-MEM medium supplemented with 10% fetal calf serum (Invitrogen), in the presence of penicillin, streptomycin and fungizone in a 75 cm^2 flask under 5% CO2. Cells were plated in 96-well tissue culture microplates at a density of 650 cells/well in 200 μL medium and treated 24 hrs later with compounds dissolved in DMSO using a Biomek 3000 automate (Beckman-Coulter). Controls received the same volume of DMSO (1% final volume).

[1] = Quantitative ORAC assay (fluorescein/AAPH); conditions: for fold less active than Trolox: ORAC assay, compared with Trolox; for ORAC FL relative ORAC value: fluorescein (FL) + AAPH, n = 3, Trolox = 1; for concentration displaying FL decay curve similar to Trolox: fluorescein fluorescence decay induced by AAPH, Figure 3

Sequence of bee venom PLA2 (P00630 34-167 limits assumed): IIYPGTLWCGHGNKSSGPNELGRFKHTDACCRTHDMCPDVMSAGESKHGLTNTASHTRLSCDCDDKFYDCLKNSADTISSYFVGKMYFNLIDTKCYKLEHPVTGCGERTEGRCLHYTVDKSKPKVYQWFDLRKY

SMILES | IC50 (bee venom PLA2; n = 2, read-out: PLA2 IC50) | ORAC FL relative ORAC value [1] | other results
NC(=O)C(=O)c1c[nH]c2ccccc12 [Compound 1, (1H-Indol-3-yl)oxoacetamide] |  |  | IC50 (bee venom PLA2): 1170 ± 50 µM
COC(=O)C(=O)c1c[nH]c2ccccc12 [Compound 2, (1H-Indol-3-yl)oxoacetic acid methyl ester] | 1110 ± 330 µM |  | 
O=Cc1c[nH]c2cc(Br)ccc12 [Compound 3, 6-Bromoindole-3-carbaldehyde] | 1270 ± 60 µM |  | 
C[C@H]1CC[C@H]2C(C)(C)CCC[C@]23Oc2ccc(O)cc2C[C@]13C [Compound 4, Aureol] | 460 ± 20 µM | 0.29 relative Trolox equivalent and 0.29 ± 0.03 relative Trolox equivalent | IC50 (KB cells; Homo sapiens, KB, 72 h, read-out: KB cells IC50 (50% inhibition of cell proliferation)): 5 µM; fold less active than Trolox [1]: 3 fold; concentration displaying FL decay curve similar to Trolox [1]: 15.5 µM
NCCc1c[nH]c2cc(Br)c(Br)cc12 [Compound 5, 5,6-Dibromotryptamine] | 620 ± 10 µM |  | 
CNCCc1c[nH]c2cc(Br)c(Br)cc12 [Compound 6, N-Methyl-5,6-dibromotryptamine] | 330 ± 30 µM |  | 
CN(C)CCc1c[nH]c2cc(Br)c(Br)cc12 [Compound 7, N,N-Dimethyl-5,6-dibromotryptamine] | 770 ± 50 µM | 0.06 ± 0.01 relative Trolox equivalent | 
CN[C@@H](Cc1c[nH]c2cc(Br)c(Br)cc12)C(=O)O [Compound 8, 5,6-Dibromoabrine] | 300 ± 10 µM | 0.07 ± 0.01 relative Trolox equivalent | 
C[N+](C)(C)[C@@H](Cc1c[nH]c2cc(Br)c(Br)cc12)C(=O)[O-] [Compound 9, 5,6-Dibromo-L-hypaphorine] | 200 ± 10 µM | 0.22 relative Trolox equivalent and 0.22 ± 0.04 relative Trolox equivalent | cytotoxicity towards KB cells (KB cells; at 10^−4 M, human KB cell line): did not show any cytotoxic activity; fold less active than Trolox [1]: 4 fold; concentration displaying FL decay curve similar to Trolox [1]: 24.2 µM
Cc1c(C)c2c(c(C)c1O)CCC(C)(C(=O)O)O2 (centres unmarked) [Trolox, reference compound] |  | 1 relative Trolox equivalent | 
